The text below walks through data of patent US9453024B2, “Polymorphs of darunavir” (MAPI PHARMA LTD., priority 2009, dated 2016).

In brackets after ≈: the same amount, converted by molar mass. Where two headings read alike, the source gives them in different places.

Data set [1] can be described thus: Particle size distribution and surface area. The data set is classed as physicochemical. As to the method:
Micronized darunavir dimethylsulfoxide solvate was prepared from the non-micronized form by milling using a jet mill (Super fine vortex Mill™).

Data set [2] in a line: Bulk density. Type of data set: physicochemical.
A short description of data set [3]: Aqueous solubility in buffers, 24 h shaking at 25° C., HPLC. The data set is classed as physicochemical. The following applies: 24 hours at 25° C.; for solubility at 24 h: 25 °C, thermodynamic from solid. Here is the method:
The aqueous solubility of the tetrahydrofuran solvate of darunavir of the present invention was measured. Specifically, about 10 mg of the compound was accurately weighed into a 4 ml clear glass vial followed by the addition of 2.5 ml buffer (at different pH) to the vial. The vial was then mounted on a Thermomixer and was kept shaking for 24 hours at 25° C. The solution was filtered through 0.45 μm PTFE filter. The pH value and concentration of the filtrate were checked by pH meter and HPLC (Agilent 1200; Column: Zorbax SB C18, 4.6 mm×150 mm ID×5 μm; Profile of mobile phase: t=0 water 70, ACN 30; t=15,20 water 0, ACN 100; Column temperature 30° C.; Mobile rate 1.0 mL/min; Detector wavelength 265 nm; The typical retention time of Darunavir is 7.7 min), respectively.
The aqueous solubility of the dimethylsulfoxide solvate of darunavir of the present invention was measured. Specifically, about 10 mg of the compound was accurately weighed into a 4 ml clear glass vial followed by the addition of 2.5 ml buffer (at different pH) to the vial. The vial was then mounted on a Thermomixer and kept shaking for 24 hours at 25° C. The solution was filtered through 0.45 μm PTFE filter. The pH value and concentration of the filtrate were checked by pH meter and HPLC, respectively.
Specifically, about 10 mg of the compound was accurately weighed into a 4 ml clear glass vial followed by the addition of 2.5 ml buffer (at different pH) to the vial. The vial was then mounted on a Thermomixer and kept shaking for 24 hours at 25° C. The solution was filtered through 0.45 μm PTFE filter. The pH value and concentration of the filtrate were checked by pH meter and HPLC, respectively. The results are summarized in Table 11 and in FIG. 8 panel C.

The nature of data set [4]: Hygroscopicity (DVS) from 0% to 90%. Type of data set: physicochemical. The conditions noted are these: for weight gain from 0% to 90% (DVS) / hygroscopicity (in words): 25° C.; for hygroscopicity (in words): DVS 0% to 90%. As to the method:
About 10 mg of the tetrahydrofuran solvate form of the present invention were used to test the hygroscopicity (DVS) from 0% to 90% according to the details on Table 2.
About 10 mg of the dimethylsulfoxide solvate form of the present invention were used to test the hygroscopicity (DVS) from 0% to 90% according to the details on Table 2 hereinabove.
The hygroscopicities of the Darunavir forms of the present invention were compared to the hygroscopicity of Darunavir ethanolate API.

For data set [5] the following is noted: water at 20° C.; cited from earlier work.
The mark [6] stands for this setting: pH 1.2 buffer, footnote *degraded.
Setting [7] is: listed as dimethylsulfoxide solvate form.
Setting [8] is: listed as tetrahydrofuran solvate form.

In data set [1] (listed as Micronized), `CC(C)CN(C[C@@H](O)[C@H](Cc1ccccc1)NC(=O)O[C@H]1CO[C@H]2OCC[C@H]21)S(=O)(=O)c1ccc(N)cc1` [[(1S,2R)-3-[[(4-aminophenyl)sulfonyl](2-methylpropyl)amino]-2-hydroxy-1-(phenylmethyl)propyl]-carbamic acid (3R,3aS,6aR)-hexahydrofuro[2,3-b]furan-3-yl ester] displayed a D10 of 1.5 μm, a D50 of 3.7 μm, a D90 of 7.2 μm and a Specific surface area of 2.6 m^2/g. In addition, in data set [1] (listed as Micronized), the Surface weighted mean stood at 2.3 μm and the Vol. weighted mean turned out to be 4.1 μm. Moreover, the Dissolution (15 min, 600 mg/vessel, 75 rpm, 900 mL 2.0% Tween-20 in 0.05M sodium phosphate buffer pH 3.0, 37° C., listed as Micronized) turned out to be 89.30%. Moreover, the Dissolution (30 min, same medium, listed as Micronized) was 94.72%. Moreover, the Dissolution (45 min, same medium, listed as Micronized) is 95.98%. For the same compound, where the note is “60 min, same medium, listed as Micronized”, the Dissolution was 94.95%.

On to `CC(C)CN(C[C@@H](O)[C@H](Cc1ccccc1)NC(=O)O[C@H]1CO[C@H]2OCC[C@H]21)S(=O)(=O)c1ccc(N)cc1` [amorphous darunavir, [(1S,2R)-3-[[(4-aminophenyl)sulfonyl](2-methylpropyl)amino]-2-hydroxy-1-(phenylmethyl)propyl]-carbamic acid (3R,3aS,6aR)-hexahydrofuro[2,3-b]furan-3-yl ester], for which, in data set [2], the bulk density stood at 0.445 ± 0.012 g/mL. The Solubility (usually the dissolved amount per volume that the medium holds) in data set [3] (setting [6]) was 1.73* mg/ml; in data set [3] (pH 4.5 buffer) it was 0.27 mg/mL (≈ 493 µM); in data set [3] (pH 6.8 buffer) it was 0.24 mg/mL (≈ 438 µM); in data set [3] (pH 7.4 buffer), 0.23 mg/mL (≈ 420 µM); in data set [3] (water), 0.27 mg/mL (≈ 493 µM). For the same compound, the “weight gain from 0% to 90% (DVS)” value in data set [4] turned out to be 2.617%. In addition, the “hygroscopicity (in words)” value in data set [4] is “hygroscopic”.

Consider `CC(C)CN(C[C@@H](O)[C@H](Cc1ccccc1)NC(=O)O[C@H]1CO[C@H]2OCC[C@H]21)S(=O)(=O)c1ccc(N)cc1` [darunavir dimethylsulfoxide solvate, [(1S,2R)-3-[[(4-aminophenyl)sulfonyl](2-methylpropyl)amino]-2-hydroxy-1-(phenylmethyl)propyl]-carbamic acid (3R,3aS,6aR)-hexahydrofuro[2,3-b]furan-3-yl ester], for which, in data set [1] (listed as Non-micronized), the D10 came to 3.9 μm. The D50 in data set [1] (listed as Non-micronized) is given as 29.2 μm. Besides, in data set [1] (listed as Non-micronized), the D90 stood at 99.7 μm. The same compound had a Specific surface area in data set [1] (listed as Non-micronized) of 0.9 m^2/g. In data set [1] (listed as Non-micronized), the Surface weighted mean was determined as 6.5 μm. The Vol. weighted mean in data set [1] (listed as Non-micronized) is reported as 42.0 μm. Further, the Dissolution (15 min, 600 mg/vessel, 75 rpm, 900 mL 2.0% Tween-20 in 0.05M sodium phosphate buffer pH 3.0, 37° C., listed as Non-micronized) worked out at 56.83%; the Dissolution (30 min, same medium, listed as Non-micronized) is recorded as 81.61%; the Dissolution (45 min, same medium, listed as Non-micronized) was 88.06%; the Dissolution (60 min, same medium, listed as Non-micronized) was found to be 90.45%. In data set [2], this compound had a bulk density of 0.472 ± 0.008 g/mL. Besides, in data set [2], the “denser when compared to the bulk density of the known ethanolate form” value was “approximately 26%”. For the same compound, the Solubility in data set [3] (setting [6]) was 1.36* mg/ml; in data set [3] (pH 4.5 buffer), 0.22 mg/mL; in data set [3] (pH 6.8 buffer) it was 0.21 mg/mL; in data set [3] (pH 7.4 buffer) it was 0.20 mg/mL; in data set [3] (water) it was 0.23 mg/mL. The “weight gain from 0% to 90% (DVS)” value in data set [4] and in data set [4] (setting [7]) was 0.9431% throughout. The “hygroscopicity (in words)” value in data set [4] and in data set [4] (setting [7]) was “only slightly hygroscopic” each time.

Take `CC(C)CN(C[C@@H](O)[C@H](Cc1ccccc1)NC(=O)O[C@H]1CO[C@H]2OCC[C@H]21)S(=O)(=O)c1ccc(N)cc1` [darunavir ethanolate, [(1S,2R)-3-[[(4-aminophenyl)sulfonyl](2-methylpropyl)amino]-2-hydroxy-1-(phenylmethyl)propyl]-carbamic acid (3R,3aS,6aR)-hexahydrofuro[2,3-b]furan-3-yl ester, reference compound]: in data set [5], the solubility in water entry is “approximately 0.15 mg/mL”. The bulk density in data set [2] (known ethanolate form, comparator) was 0.374 ± 0.009 g/mL. In data set [4], the “weight gain from 0% to 90% (DVS)” value is on record as 2.180% and the “hygroscopicity (in words)” value is “hygroscopic”. In addition, the “loss of solvate during the desorption measurement” value in data set [4] (DVS desorption) is “lost the solvate ethanol molecules”.

In the case of `CC(C)CN(C[C@@H](O)[C@H](Cc1ccccc1)NC(=O)O[C@H]1CO[C@H]2OCC[C@H]21)S(=O)(=O)c1ccc(N)cc1` [darunavir tetrahydrofuran solvate, [(1S,2R)-3-[[(4-aminophenyl)sulfonyl](2-methylpropyl)amino]-2-hydroxy-1-(phenylmethyl)propyl]-carbamic acid (3R,3aS,6aR)-hexahydrofuro[2,3-b]furan-3-yl ester], in data set [2], the bulk density is 0.431 ± 0.007 g/mL. Moreover, the solubility (as a rule, how much of the substance goes into solution per volume) at 24 h in data set [3] (pH 1.2 buffer, pH 1.2, simulated gastric fluid, footnote *degraded) was 1470 µg/mL; in data set [3] (pH 4.5 buffer, pH 4.5, aqueous buffer), 270 µg/mL; in data set [3] (pH 6.8 buffer, pH 6.8, aqueous buffer), 240 µg/mL; in data set [3] (pH 7.4 buffer, pH 7.4, aqueous buffer) it was 230 µg/mL; in data set [3] (water) it was 270 µg/mL. The “weight gain from 0% to 90% (DVS)” value in data set [4] and in data set [4] (setting [8]) was 1.366% in each case. Also, the “hygroscopicity (in words)” value in data set [4] is “only slightly hygroscopic”; in data set [4] (setting [8]), “slightly hygroscopic”.
